Assays:
[1] = biological target: Phosphatidylinositol 4,5-bisphosphate 3-kinase catalytic subunit alpha isoform (Homo sapiens, UniProt P42336); experiment: Inhibition of PI3K-alpha (unknown origin) by mobility shift assay
Mus musculus [2] = organism: Mus musculus; experiment: animal or person; settings: PC-3, po, 2 h, read-out: INH
[3] = Metabolic stability in rat S9 fraction assessed as compound remaining measured at 60 mins; type: ADME; settings: read-out: Stability
Mus musculus [4] = organism: Mus musculus; experiment: animal or person; settings: PC-3, po, 24 h, read-out: INH
[5] = AUC (0 to infinity) in rat at 5 mg/kg, po; type: ADME, organism-based; design: dose 5 mg/kg, time infinity, route oral; settings: in vivo
PC-3 [6] = settings: Homo sapiens
Mus musculus [7] = organism: Mus musculus; experiment: animal or person; settings: PC-3, po, 2 h, read-out: INH; remark: listed apart in the source
Mus musculus [8] = organism: Mus musculus; experiment: animal or person; settings: PC-3, po, 4 h, read-out: INH
[9] = Tmax in rat at 5 mg/kg, po; type: ADME, organism-based; settings: in vivo
[10] = Cmax in rat at 5 mg/kg, po; type: ADME, organism-based; design: dose 5 mg/kg, route oral; settings: in vivo
cells = settings: Homo sapiens, PC-3, 1 h
Mus musculus [11] = organism: Mus musculus; experiment: animal or person; settings: PC-3, po, 24 h, read-out: INH; remark: listed apart in the source
Mus musculus [12] = organism: Mus musculus; experiment: animal or person; settings: PC-3, po, 8 h, read-out: INH
Mus musculus [13] = organism: Mus musculus; experiment: animal or person; settings: PC-3, po, 8 h, read-out: INH; remark: listed apart in the source
PC-3 [14] = experiment: Antitumor activity against human PC3 cells xenografted in mouse assessed as tumor volume reduction at 50 mg/kg, po qd for 21 days relative to control; type: functional; design: scale not given: the % may be the effect or the level left
PC-3 [15] = settings: Homo sapiens, TDE = time-dependent effect
[16] = Clearance in rat at 2 mg/kg, iv; type: ADME, organism-based; settings: in vivo
[17] = Oral bioavailability in rat at 5 mg/kg; type: ADME, organism-based; settings: in vivo
Mus musculus [18] = organism: Mus musculus; experiment: animal or person; settings: PC-3, po, 4 h, read-out: INH; remark: listed apart in the source
[19] = Cmax in rat at 10 mg/kg, po; type: ADME, organism-based; design: dose 10 mg/kg, route oral; settings: in vivo
[20] = biological target: Serine/threonine-protein kinase mTOR (Homo sapiens, UniProt P42345); experiment: Inhibition of recombinant mTOR (unknown origin) using GST-p70S6 as substrate after 60 mins by TR-FRET analysis
[21] = Inhibition of mTORC2 in human PC3 cells assessed as inhibition of AKT phosphorylation at S473 by sandwich immunoassay; type: cell-based; settings: PC-3
PC-3 [22] = experiment: Cytotoxicity against human PC3 cells assessed as inhibition of cell proliferation after 3 days by WST1 assay; type: functional, cell-based; settings: PC-3, 72 h
[23] = Oral bioavailability in rat at 10 mg/kg; type: ADME, organism-based; settings: in vivo
[24] = AUC (0 to infinity) in rat at 10 mg/kg, po; type: ADME, organism-based; design: dose 10 mg/kg, route oral, time infinity; settings: in vivo
[25] = Tmax in rat at 10 mg/kg, po; type: ADME, organism-based; settings: in vivo
PC-3 [26] = experiment: Antitumor activity against human PC3 cells xenografted in mouse assessed as tumor volume reduction at 100 mg/kg, po bid with 10 hrs separation between morning and evening doses for 21 days relative to control; type: functional; design: scale not given: the % may be the effect or the level left
PC-3 [27] = settings: Homo sapiens, TDE = time-dependent effect; remark: listed apart in the source
PC-3 [28] = settings: Homo sapiens; remark: listed apart in the source

Phosphatidylinositol 4,5-bisphosphate 3-kinase catalytic subunit alpha isoform, sequence (P42336 whole entry, canonical isoform): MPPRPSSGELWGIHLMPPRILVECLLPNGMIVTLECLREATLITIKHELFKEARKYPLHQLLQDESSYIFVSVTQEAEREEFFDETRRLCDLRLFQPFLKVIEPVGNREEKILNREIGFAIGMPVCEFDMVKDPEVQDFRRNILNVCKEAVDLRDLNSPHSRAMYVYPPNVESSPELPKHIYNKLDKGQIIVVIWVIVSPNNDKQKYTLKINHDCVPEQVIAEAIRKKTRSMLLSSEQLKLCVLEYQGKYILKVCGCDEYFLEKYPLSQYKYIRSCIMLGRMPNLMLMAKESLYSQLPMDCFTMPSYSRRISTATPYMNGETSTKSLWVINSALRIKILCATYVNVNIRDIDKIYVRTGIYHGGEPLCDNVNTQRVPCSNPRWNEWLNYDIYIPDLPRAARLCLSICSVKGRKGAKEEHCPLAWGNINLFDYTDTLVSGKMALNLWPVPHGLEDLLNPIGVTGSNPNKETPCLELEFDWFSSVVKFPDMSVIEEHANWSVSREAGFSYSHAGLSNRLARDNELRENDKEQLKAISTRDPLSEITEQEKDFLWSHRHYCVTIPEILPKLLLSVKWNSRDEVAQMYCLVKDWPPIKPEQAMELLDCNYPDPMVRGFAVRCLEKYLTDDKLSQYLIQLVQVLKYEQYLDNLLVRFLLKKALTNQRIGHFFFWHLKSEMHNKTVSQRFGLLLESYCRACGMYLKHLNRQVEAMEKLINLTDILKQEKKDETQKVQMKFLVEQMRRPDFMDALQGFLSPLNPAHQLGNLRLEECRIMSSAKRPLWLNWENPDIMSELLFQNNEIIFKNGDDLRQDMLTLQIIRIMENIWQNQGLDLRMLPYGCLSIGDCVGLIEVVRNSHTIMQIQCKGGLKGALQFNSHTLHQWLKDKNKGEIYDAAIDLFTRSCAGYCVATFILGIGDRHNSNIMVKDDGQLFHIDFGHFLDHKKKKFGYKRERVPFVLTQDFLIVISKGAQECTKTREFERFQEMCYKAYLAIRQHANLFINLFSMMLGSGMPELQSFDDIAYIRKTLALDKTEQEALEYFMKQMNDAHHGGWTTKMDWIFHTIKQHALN

SMILES | IC50 [1] | remaining at 1 h [3] | inhibition in vivo at 100 mg/kg (Mus musculus [4]) | AUC(0-inf) [5] | inhibition in vivo at 100 mg/kg (Mus musculus [8]) | Cmax [10] | IC50 (cells) | inhibition in vivo at 100 mg/kg (Mus musculus [11]) | inhibition in vivo at 100 mg/kg (Mus musculus [12]) | inhibition in vivo at 100 mg/kg (Mus musculus [13]) | inhibition in vivo at 100 mg/kg (Mus musculus [18]) | other results
CC(C)(O)c1ccc(-c2cnc3c(n2)N([C@H]2CC[C@@H](O)CC2)C(=O)CN3)cn1 | 2.8 µM | – | – | – | – | – | – | – | – | – | – | –
CC(C)(O)c1ccc(-c2cnc3c(n2)N(CCC2CCOCC2)C(=O)CN3)cn1 | – | 73% | 69% | 14 µM·h | 80% | 1700 nM | 0.09 µM | 59% | 88% | 78% | 63% | inhibition in vivo at 100 mg/kg (Mus musculus [2]): 82%; TGI (PC-3 [6]): Dose-dependent effect; inhibition in vivo at 100 mg/kg (Mus musculus [7]): 71%; Tmax [9]: 36 min; Activity (PC-3 [14]): 59%; TGI (PC-3 [15]): tde; clearance [16]: 9 mL/min/kg; bioavailability [17]: 58%
CC(C)(O)c1ccc(-c2cnc3c(n2)N(CC2CCOCC2)C(=O)CN3)cn1 | 3.8 µM | 83% | 80% | 9.9 µM·h | 93% | 1600 nM | 0.13 µM | 91% | 94% | 81% | 86% | –
CO[C@H]1CC[C@H](CN2C(=O)CNc3ncc(-c4ccc(C(C)(C)O)nc4)nc32)CC1 | 4.7 µM | 55% | – | – | – | – | – | – | – | – | – | –
CO[C@H]1CC[C@H](CN2CC(=O)Nc3ncc(-c4ccc(C(C)(C)O)nc4)nc32)CC1 | 20.2 µM | 77% | 0% | 7.25 µM·h | 80% | 700 nM | 0.16 µM | 0% | 64% | 55% | 55% | –
O=C1CN(CCC2CCOCC2)c2nc(-c3ccc(-c4nc[nH]n4)cc3)cnc2N1 | – | 61% | – | – | – | – | – | – | – | – | – | Cmax [19]: < 2.13 nM; clearance [16]: 13.8 mL/min/kg
CC(C)(O)c1ccc(-c2cnc3[nH]c(=O)n(CCC4CCOCC4)c3n2)cn1 | > 30 µM | 91% | – | 4.8 µM·h | – | 1800 nM | – | – | – | – | – | IC50 [20]: 0.064 µM; IC50 [21]: 0.638 µM; Tmax [9]: 30 min; IC50 (PC-3 [22]): 2.36 µM; clearance [16]: 15 mL/min/kg; bioavailability [17]: 43%
Cc1cc(-c2nc[nH]n2)ccc1-c1cnc2c(n1)N(CCC1CCOCC1)CC(=O)N2 | 0.2 µM | – | – | – | – | – | – | – | – | – | – | –
O=c1[nH]c2ncc(-c3ccc(-c4nc[nH]n4)cc3)nc2n1CCC1CCOCC1 | – | 93% | – | – | – | – | – | – | – | – | – | Cmax [19]: 24 nM; bioavailability [23]: 0.85%; clearance [16]: 32 mL/min/kg; AUC(0-inf) [24]: 0.11 µM·h; Tmax [25]: 60 min
Cc1cc(-c2nc[nH]n2)ccc1-c1cnc2c(n1)N(CCC1CCOCC1)C(=O)CN2 | 0.12 µM | – | – | – | – | – | – | – | – | – | – | –
O=C1CN(CCC2CCOCC2)c2nc(-c3ccc(-c4nc[nH]n4)nc3)cnc2N1 | 1.6 µM | – | – | – | – | – | – | – | – | – | – | –
COCCN1C(=O)CNc2ncc(-c3ccc(C(C)(C)O)nc3)nc21 | 6.2 µM | 89% | 77% | 29 µM·h | 82% | 5600 nM | 0.61 µM | 91% | 91% | 84% | 87% | –
CO[C@H]1CC[C@@H](CN2CC(=O)Nc3ncc(-c4ccc(C(C)(C)O)nc4)nc32)CC1 | 7.6 µM | 39% | – | – | – | – | – | – | – | – | – | –
COCCN1CC(=O)Nc2ncc(-c3ccc(C(C)(C)O)nc3)nc21 | 10.5 µM | – | – | – | – | – | – | – | – | – | – | –
CC(C)(O)c1ccc(-c2cnc3c(n2)N(C2CCOCC2)C(=O)CN3)cn1 | 3.2 µM | – | – | – | – | – | – | – | – | – | – | –
CO[C@H]1CC[C@H](N2CC(=O)Nc3ncc(-c4ccc(C(C)(C)O)nc4)nc32)CC1 | 16.4 µM | 94% | 61% | 90 µM·h | 90% | 6300 nM | 0.35 µM | 85% | 85% | 69% | 62% | inhibition in vivo at 100 mg/kg (Mus musculus [2]): 75%; TGI (PC-3 [6]): Dose-dependent effect; inhibition in vivo at 100 mg/kg (Mus musculus [7]): 87%; Activity (PC-3 [14]): 90%; TGI (PC-3 [15]): tde; clearance [16]: 1.7 mL/min/kg; bioavailability [17]: 70%
CC(C)(O)c1ccc(-c2cnc3c(n2)N(CCC2CCOCC2)CC(=O)N3)cn1 | – | 95% | 28% | 11 µM·h | 63% | 1500 nM | 0.11 µM | 0% | 64% | 67% | 63% | inhibition in vivo at 100 mg/kg (Mus musculus [2]): 74%; Activity (PC-3 [26]): 72%; inhibition in vivo at 100 mg/kg (Mus musculus [7]): 87%; Tmax [9]: 90 min; TGI (PC-3 [27]): tde; TGI (PC-3 [28]): Dose-dependent effect; clearance [16]: 23 mL/min/kg; bioavailability [17]: 100%
CC(C)(O)c1ccc(-c2cnc3c(n2)N(CC2CCCCC2)CC(=O)N3)cn1 | 17.7 µM | 16% | – | – | – | – | – | – | – | – | – | –
CC(C)(O)c1ccc(-c2cnc3c(n2)N([C@H]2CC[C@H](O)CC2)C(=O)CN3)cn1 | 1.9 µM | – | – | 9.23 µM·h | – | 2200 nM | – | – | – | – | – | –
CC(C)(O)c1ccc(-c2cnc3c(n2)N(CC2CCOCC2)CC(=O)N3)cn1 | > 30 µM | 100% | 65% | – | 86% | – | 0.32 µM | 83% | 88% | 71% | 73% | inhibition in vivo at 100 mg/kg (Mus musculus [2]): 85%; TGI (PC-3 [6]): Dose-dependent effect; inhibition in vivo at 100 mg/kg (Mus musculus [7]): 88%; Activity (PC-3 [14]): 84%; TGI (PC-3 [15]): tde
CO[C@H]1CC[C@@H](N2CC(=O)Nc3ncc(-c4ccc(C(C)(C)O)nc4)nc32)CC1 | 11.1 µM | – | 45% | 26.6 µM·h | 54% | 2770 nM | 0.33 µM | 70% | 52% | 59% | 34% | inhibition in vivo at 100 mg/kg (Mus musculus [2]): 72%; inhibition in vivo at 100 mg/kg (Mus musculus [7]): 80%
CC(C)(O)c1ccc(-c2cnc3c(n2)N(C2CCOCC2)CC(=O)N3)cn1 | 4.7 µM | – | – | – | – | – | – | – | – | – | – | –
CO[C@H]1CC[C@@H](CN2C(=O)CNc3ncc(-c4ccc(C(C)(C)O)nc4)nc32)CC1 | 2.5 µM | – | – | – | – | – | – | – | – | – | – | –
O=C1CNc2ncc(-c3ccc(-c4ncn[nH]4)cc3)nc2N1CCC1CCOCC1 | 0.1 µM | 48% | – | – | – | – | – | – | – | – | – | –
